Assay results as given in patent US9220746B2, “Compounds and methods for treating bone disorders and controlling weight” (The University of North Carolina at Chapel Hill, priority 2009, dated 2015).

Key:
3T3L1 = test: Fat cell differentiation of 3T3L1 cells, oil red O staining; type: cell-based
Method: In some assays, fat cell data were obtained by using the cell line 3T3L1, which is used to study fat cell differentiation. These cells are grown as fat cell precursors. These cells are maintained in Hams F12 with fetal calf serum and 15 mM glutamine. To stimulate them to enter the fat cell differentiation pathway, isomethylbutylxanine, dexamethasone and insulin are added using concentrations of 0.5 mM IBMX 16.7 nM insulin and 0.1 uM dexamethasone. In some cases 100 ng/ml IGF-I was added instead of insulin. Three days after the addition, differentiation into adipocytes is apparent and is detected by oil red O staining.
To determine the effects of the peptide of SEQ ID NO:1, it was added at concentrations of 20 ng/ml, 200 ng/ml and 2 ug/ml. A detectable inhibition of adipocyte differentiation, as determined by a decrease in the number of oil red O positive cells, was detected using 20 ng/ml of peptide. The response was maximal at 200 ng/ml and not increased further by adding 2 mcg/ml.
For oil red O staining, a stock solution of […] isoproponol is prepared. 60 ml of solution is mixed with 40 ml of water and allowed to sit at room temperature for an hour and then filtered. The media is aspirated from the adipocyte cultures and cells are fixed in 1% formaldehyde. Formaldehyde is aspirated and the oil red O solution is added in an amount necessary to cover the cells, which are then left at room temperature for one hour. The stain is then removed and the plates are washed with distilled water and dried. Typically 60-70% of the cells stain positive after 3 days.

adherent macrophages = test: Osteoclast differentiation, tartrate resistant acid phosphatase staining; type: cell-based, mouse; settings: for osteoclast differentiation: macrophages of IGFBP-2 gene deleted Balb/c mice, mCSF, RANK ligand, TRAP stain day 7
Text: The method for osteoclast differentiation is as follows: Balb/c mice in which the IGFBP-2 gene had been deleted (see V. DeMambro et al, Endocrinology, 149(5): 2051-2061 (2007)) were anesthetized and sacrificed using cervical dislocation. The femurs from each mouse were dissected free of soft tissue and the bone marrow aspirated by needle puncture. Cells were removed sterile and resuspended in DMEM with 10% fetal calf serum. The cells were centrifuged at 700×g and the cell pellet resuspended in medium and plated in 24 well plates at a concentration of 5000 cells/cm^2. The plates that are used are low adherence plates that have no additives to facilitate cell adherence. Under these conditions macrophages will adhere while other cells will not. The media is supplemented with mCSF 20 ng/ml. After 3 days the cells are removed from the plate and the adherent macrophages are exposed to fresh media containing 10% FBS and mCSF. This is repeated again after 3 days and then after an additional 3 days cells are trypsinized and replated in fresh plates at 6×10^4 cells/cm. At this time RANK ligand, 50 ng/ml, is added, although in some experiments concentrations as low as 10 ng/ml were utilized. Medium is changed at 3 and 6 days and on day 7 cells are stained for tartrate resistant acid phosphatase, a marker of osteoclast differentiation. IGFBP-2 was added at concentrations between 50 ng/ml and 500 mcg/ml. The peptide was added at 20 or 200 ng/ml.
For tartrate resistant acid phosphatase staining, a 1% solution is prepared and incubated with the cells for 30 min at room temperature. Cultures are then washed and cell number determined by manual counting.

mouse metatarsal bones = test: Ex vivo metatarsal explant bone growth and mineralization; type: cell-based; settings: for bone growth and calcification: metatarsals derived from IGFBP-2−/− mice, 20-200 ng/ml
Text: This system uses an ex vivo explant system, therefore it is a transition between cultured cells and in vivo experiments. The bone forming tissue is removed directly from a mouse and then grown in organ culture for several days. The test additives can be added directly to the medium at any concentration in order to test for biological activity. The method is as follows: mouse metatarsal bones were isolated from newborn mice between days 0 and 3 after birth using the dissecting microscope. The middle three metatarsals were used for all experiments. Three metatarsals were incubated per well in a 24 well tissue culture dish in DMEM containing 0.5% bovine serum, […], 1 mM beta glycerol phosphate at 37° C. The medium was replaced one day later and the metatarsals are cultured for up to 10 days. Growth was measured by quantitative increase in size, both length and width of the bones using an inverted phase microscope with a built in micrometer scaling bar for measurements. Mineralization was assessed by the addition of calcein (500 ng/ml) to the medium for 2 hrs prior to tissue fixation. Fluorescent images were captured using a digital camera attached to an inverted microscope and quantifying calcein fluorescence under the appropriate […] stimulus. Bone and cartilage histology were measured by fixing the bones in 4% PFA overnight and storing at 70% ethanol, followed by […] embedding sectioning and staining. Sections were stained with H&E, Alizaran red or alkaline phosphatase. For analysis of proteins, the tissue was homogenized in Laemmli sample buffer and gels were run using standard SDS polyacrylamide gel electrophoresis and western blotting.

| Molecule | concentration at which inhibition of adipocyte differentiation (decrease in oil red O positive cells) was detectable (3T3L1; 3T3L1, added at 20 ng/ml, 200 ng/ml and 2 ug/ml) [ng/mL] | concentration at which the response (inhibition of adipocyte differentiation) was maximal (3T3L1; 3T3L1, not increased further by 2 mcg/ml) [ng/mL] | oil red O positive cells at maximum effect of the peptide (3T3L1; typically 60-70% of the cells stain positive after 3 days) [%] | serum concentration at which osteoclast differentiation was still detected in the presence of the peptide (adherent macrophages) [%] | osteoclast differentiation (adherent macrophages) | bone growth and calcification (mouse metatarsal bones) | effect on bone growth (mouse metatarsal bones; metatarsals from normal mice) | concentrations found to inhibit adipocyte differentiation (3T3L1; 3T3L1, tested in parallel) [ng/mL] |
| --- | --- | --- | --- | --- | --- | --- | --- | --- |
| KHHLGLEEPKKLR (IGFBP-2 heparin binding domain-containing peptide sequence) [peptide of SEQ ID NO:1] | 20 | 200 | < 20 | 0.5 | would not differentiate into osteoclasts without addition | stimulated bone growth and calcification | modest additional stimulatory effect |  |
| IGFBP-2: Insulin-like growth factor binding protein-2, 36,000 dalton protein, purified from cellular conditioned medium (protein, UniProt P18065 36-325, looked up) Insulin-like growth …: AEVLFRCPPCTPERLAACGPPPVAPPAAVAAVAGGARMPCAELVREPGCGCCSVCARLEGEACGVYTPRCGQGLRCYPHPGSELPLQALVMGEGTCEKRRDAEYGASPEQVADNGDDHSEGGLVENHVDSTMNMLGGGGSAGRKPLKSGMKELAVFREKVTEQHRQMGKGGKHHLGLEEPKKLRPPPARTPCQQELDQVLERISTMRLPDERGPLEHLYSLHIPNCDKHGLYNLKQCKMSLNGQRGECWCVNPNTGKLIQGAPTIRGDPECHLFYNEQQEARGVHTQRMQ |  |  |  |  | would not differentiate into osteoclasts without addition | stimulated bone growth and calcification |  | 50 to 500 |
